This is an account of results in PubChem BioAssay (NCI).

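Test compounds were applied to cells in 96-well plates for 48 hours at 5 doses. TGI marks complete inhibition of growth.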 Where only a bound is given, the exact number is not on record here.

Among the test systems are ACHN renal; EKVX NSCLC; KM12 colon; LOX IMVI melanoma; MDA-MB-231 breast; MDA-MB-435; MDA-N; NCI/ADR-RES ovarian; SK-MEL-5 melanoma; SNB-75 CNS.
Common to all, as to assay: NCI-60 cell line screen, 48 h

Turning to `CCOC(=O)C1C(=O)C=C(c2cc(C)ccc2O)CC1c1cccc(Br)c1` (stereo not given), the TGI in the assay with ACHN renal amounted to 42.2 µM; with EKVX NSCLC, 67.6 µM; in the assay on KM12 colon, 47.4 µM; in the assay on LOX IMVI melanoma, 32.1 µM; in the assay with MDA-MB-231 breast it was 48.4 µM; with MDA-MB-435, 8.81 µM. Moreover, the figures for the TGI in the assay on MDA-N, in the assay with NCI/ADR-RES ovarian and in the assay with SK-MEL-5 melanoma were 21.2 µM, 46.1 µM and 28.5 µM, respectively.

`O=S(=O)(N1CCCCN(S(=O)(=O)C(F)(F)F)CCCN(S(=O)(=O)C(F)(F)F)CCCN(S(=O)(=O)C(F)(F)F)CCCCN(S(=O)(=O)C(F)(F)F)CCCN(S(=O)(=O)C(F)(F)F)CCC1)C(F)(F)F`: the TGI in the assay with ACHN renal, in the assay on EKVX NSCLC, in the assay on KM12 colon, with LOX IMVI melanoma, in the assay on MDA-MB-231 breast and in the assay with MDA-MB-435 was above 100 µM in each case. The TGI with MDA-N is above 100 µM; with NCI/ADR-RES ovarian, above 100 µM; in the assay on SK-MEL-5 melanoma, above 100 µM; in the assay on SNB-75 CNS it was 92.8 µM.

Consider `CSc1nc(Cl)c2c(n1)Sc1ncnn1C2O` (stereo not given), for which the TGI in the assay on ACHN renal came out at 15.4 µM; with EKVX NSCLC it was 36.3 µM; in the assay with LOX IMVI melanoma, 21.1 µM; in the assay with MDA-MB-231 breast, 31.6 µM; with MDA-MB-435, 15.9 µM; in the assay on MDA-N it was 20.5 µM. The compound also showed a TGI with NCI/ADR-RES ovarian of 54.6 µM.

Turning to `O=C(C(=O)n1ccc2ccccc21)c1c[nH]c2ccccc12`, the TGI in the assay on ACHN renal, with EKVX NSCLC, in the assay on KM12 colon, in the assay with LOX IMVI melanoma, in the assay with MDA-MB-231 breast and with MDA-MB-435 was above 10 µM each time. Besides, the TGI with MDA-N, in the assay on NCI/ADR-RES ovarian, with SK-MEL-5 melanoma and in the assay with SNB-75 CNS was above 10 µM throughout.

As for `COC(=O)c1ccc2[nH]c3c(c2c1)CC(=O)Nc1ccccc1-3`, the TGI in the assay on ACHN renal, with EKVX NSCLC, in the assay with KM12 colon, in the assay with LOX IMVI melanoma, with MDA-MB-231 breast and in the assay with MDA-MB-435 was above 100 µM in each case. For the same compound, the TGI with MDA-N was above 100 µM; in the assay with NCI/ADR-RES ovarian it was above 100 µM; in the assay on SK-MEL-5 melanoma, above 100 µM; with SNB-75 CNS, 6.11 µM.

For the compound `C[C@H]1C(=O)C2=C[C@H]1CCC(=O)[C@]1(C)CCCC(C)(C)[C@H]1C[C@H]2O`, the TGI in the assay on ACHN renal was 31.6 µM; in the assay on EKVX NSCLC it was 31.9 µM; with KM12 colon, 52 µM; in the assay with LOX IMVI melanoma, 35.4 µM; with MDA-MB-231 breast, 20.2 µM; in the assay on MDA-MB-435, above 100 µM. Besides, the values for the TGI with MDA-N, in the assay on NCI/ADR-RES ovarian and in the assay with SNB-75 CNS were above 100 µM, 74.2 µM and 82.8 µM, respectively.

In the case of `COc1ccc(/C=N/NC(=O)c2ccccc2Nc2ccccc2C(=O)N/N=C/c2ccc(OC)c(OC)c2)cc1OC`, the TGI was above 100 µM with ACHN renal; above 100 µM with EKVX NSCLC; above 100 µM in the assay on KM12 colon; 89.1 µM in the assay with MDA-MB-231 breast; above 100 µM with MDA-MB-435; above 100 µM in the assay on MDA-N. In addition, the TGI in the assay on NCI/ADR-RES ovarian, in the assay on SK-MEL-5 melanoma and in the assay on SNB-75 CNS was above 100 µM each time.

Turning to `CN(C)CCCN1c2ccc3ccccc3c2Sc2cccc(Cl)c21`, the TGI was 12.6 µM with ACHN renal; 13.5 µM with EKVX NSCLC; 4.28 µM with KM12 colon; 8.07 µM in the assay with MDA-MB-231 breast; 3.88 µM in the assay with MDA-MB-435; 5.51 µM in the assay with MDA-N. Further, the TGI stood at 23.4 µM with NCI/ADR-RES ovarian, 9.59 µM in the assay on SK-MEL-5 melanoma and 12 µM in the assay on SNB-75 CNS.

With `COc1cc(C2c3cc4c(c(O)c3C(=O)C3CCC(=O)N32)OCO4)cc(OC)c1OC` (stereo not given), the TGI was above 100 µM with ACHN renal; above 100 µM with EKVX NSCLC; above 100 µM in the assay on KM12 colon; above 100 µM in the assay with LOX IMVI melanoma; 58.9 µM in the assay with MDA-MB-435; 91.9 µM in the assay with MDA-N. For the same compound, the TGI with NCI/ADR-RES ovarian, in the assay on SK-MEL-5 melanoma and in the assay on SNB-75 CNS was above 100 µM in each case.

For `O=C(O)CCCCCNC(=O)CCC(CN(CC(=O)OCc1ccccc1)CC(=O)OCc1ccccc1)N(CC(=O)OCc1ccccc1)CC(=O)OCc1ccccc1` (stereo not given), the TGI was found to be 32 µM in the assay with ACHN renal; 49 µM with EKVX NSCLC; 36.9 µM in the assay on KM12 colon; 38.3 µM in the assay on LOX IMVI melanoma; 38.6 µM with MDA-MB-231 breast; 35.4 µM in the assay with MDA-MB-435. In addition, the TGI amounted to 34.8 µM in the assay on MDA-N, 43.1 µM with NCI/ADR-RES ovarian and 32.2 µM in the assay on SK-MEL-5 melanoma.

For the compound `COC(=O)C(I(OS(=O)(=O)c1ccc(C)cc1)c1ccccc1)=P(c1ccccc1)(c1ccccc1)c1ccccc1`, the TGI is 32.6 µM in the assay with ACHN renal; 54.5 µM in the assay with EKVX NSCLC; 34.2 µM in the assay with KM12 colon; 75.6 µM with MDA-MB-231 breast; 36.5 µM in the assay on MDA-MB-435; 31.5 µM with MDA-N. In addition, the TGI is above 100 µM in the assay with NCI/ADR-RES ovarian and 26.1 µM with SK-MEL-5 melanoma.

Turning to `Cc1cc(C)n(CN(Cn2nc(C)cc2C)c2ccc(N(Cn3nc(C)cc3C)Cn3nc(C)cc3C)cc2)n1`, the TGI in the assay with ACHN renal was 38.2 µM; in the assay with EKVX NSCLC, 54.1 µM; with KM12 colon it was 58.2 µM; in the assay with MDA-MB-231 breast it was 88.1 µM; in the assay with MDA-MB-435, 35.9 µM; in the assay on MDA-N, 38.4 µM. In addition, the TGI was 43.2 µM with NCI/ADR-RES ovarian and 30.9 µM with SK-MEL-5 melanoma.

Consider `CC(C)(C)OC(=O)N1CC(COS(C)(=O)=O)c2ccc(O)cc21` (stereo not given), for which the TGI was determined as 3.12 µM with ACHN renal; 4.59 µM with EKVX NSCLC; 7.16 µM with KM12 colon; 8.41 µM in the assay with MDA-MB-231 breast; 3.21 µM in the assay on MDA-MB-435; 3.98 µM with MDA-N. The results for the TGI with NCI/ADR-RES ovarian, in the assay with SK-MEL-5 melanoma and in the assay with SNB-75 CNS were 4.07 µM, 2.92 µM and 3.05 µM, respectively.

`CN(C)/C=C/c1ccnc2c1C(=O)c1ccccc1C2=O`: the TGI in the assay on ACHN renal was above 50.7 µM; in the assay on EKVX NSCLC it was 44.3 µM; with KM12 colon, above 64.2 µM; in the assay on LOX IMVI melanoma it was 20.7 µM; in the assay on MDA-MB-231 breast it was above 89 µM; in the assay with MDA-N it was 3.03 µM. Besides, the TGI with NCI/ADR-RES ovarian was 57.4 µM; with SK-MEL-5 melanoma it was 4.22 µM; with SNB-75 CNS, 16.1 µM.
